Experimental data from patent publication US10336739B2, “4-hydroxy-3-(heteroaryl)pyridine-2-one APJ agonists” (BRISTOL-MYERS SQUIBB COMPANY, priority 2015, dated 2019).
pEC50: −log10 of the molar value.

Each molecule was assayed against human APJ receptor (Homo sapiens (Human), UniProt P35414) (assay: Intracellular cAMP accumulation assay (APJ hcAMP, HTRF)). Details: HEK293 cells stably expressing human APJ receptor; inhibition of forskolin-mediated cAMP production; read-out: Human APJ cAMP EC50 Potency range.
human APJ receptor, sequence (P35414 whole entry): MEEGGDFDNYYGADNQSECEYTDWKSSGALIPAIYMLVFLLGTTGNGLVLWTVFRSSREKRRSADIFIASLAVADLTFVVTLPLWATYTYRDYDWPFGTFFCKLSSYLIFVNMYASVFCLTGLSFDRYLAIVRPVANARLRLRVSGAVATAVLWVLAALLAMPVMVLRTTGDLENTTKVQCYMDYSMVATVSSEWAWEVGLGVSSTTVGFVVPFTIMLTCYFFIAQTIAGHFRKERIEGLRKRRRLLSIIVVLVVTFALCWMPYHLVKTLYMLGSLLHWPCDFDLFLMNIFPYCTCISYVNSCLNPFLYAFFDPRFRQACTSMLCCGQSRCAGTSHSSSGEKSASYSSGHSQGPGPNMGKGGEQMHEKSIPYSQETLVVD
Format: cell-based
Protocol: Intracellular cAMP Accumulation Assay
HEK293 cells stably expressing human APJ receptor were used to assess the activity of compounds. Cultured cells were detached and resuspended in the cAMP Homogeneous Time-Resolved Fluorescence (HTRF) assay buffer (Cisbio cat; #62AM4PEJ). The assay was performed in 384-well assay plates (Perkin-Elmer; cat #6008289) according to assay protocol provided by the manufacturer. Serial dilutions of a compound together with assay buffer containing […] and 2 μM forskolin were added to each well containing 5,000 cells and incubated for 30 minutes at room temperature. Subsequently, cAMP D2 reagent was added in the lysis buffer followed by the EuK antibody (Cisbio; cat #62AM4PEJ) and incubated for 60 min. The fluorescence emission ratio was measured using fluorometer. The intracellular cAMP concentrations (compound-stimulated inhibition of forskolin-mediated cAMP production) were calculated by extrapolation from a standard curve using known cAMP concentrations. The EC50 values were obtained by fitting the data to a sigmoidal concentration-response curve with variable slope.
Molecule `CCCCc1nc(O)c(-c2nnc(Cc3ccc(Cl)cc3)o2)c(O)c1-c1c(OC)ccc(F)c1OC` (single isomer, unassigned) [Example 219, 6-butyl-3-{5-[(4-chlorophenyl)methyl]-1,3,4-oxadiazol-2-yl}-5-(3-fluoro-2,6-dimethoxyphenyl)pyridine-2,4-diol] has a pEC50 of 8.00 to 11.00.

Same assay, conditions: HEK293 cells stably expressing human APJ receptor; inhibition of forskolin-mediated cAMP production; read-out: hAPJ cAMP EC50 (nM) Potency range
For `COc1cccc(OC)c1-c1c(C2CCCC2)nc(O)c(-c2nnc(Cc3ccc(Cl)cn3)s2)c1O` [Example 233, 3-{5-[(5-chloropyridin-2-yl)methyl]-1,3,4-thiadiazol-2-yl}-6-cyclopentyl-5-(2,6-dimethoxyphenyl) pyridine-2,4-diol], the EC50 was 10 to 100 nM.
With `CCCCc1nc(O)c(-c2nnc(CC(=O)NCc3ccccc3C)o2)c(O)c1-c1c(OC)cccc1OC` [Example 264, 2-{5-[6-butyl-5-(2,6-dimethoxyphenyl)-2,4-dihydroxy-pyridin-3-yl]-1,3,4-oxadiazol-2-yl}-N-[(2-methylphenyl)methyl]acetamide] the EC50 was 0.01 to 10 nM.
`CCCCc1nc(O)c(-c2nnc(CC(=O)NCCc3ccc(Cl)cc3)o2)c(O)c1-c1c(OC)cccc1OC` [Example 267, 2-{5-[6-butyl-5-(2,6-dimethoxyphenyl)-2,4-dihydroxy-pyridin-3-yl]-1,3,4-oxadiazol-2-yl}-N-[2-(4-chlorophenyl)ethyl]acetamide] was tested, and the EC50 was 0.01 to 10 nM.
Molecule `CCCCc1nc(O)c(-c2nnc(CC(=O)NCc3ccc(S(N)(=O)=O)cc3)o2)c(O)c1-c1c(OC)cccc1OC` [Example 273, 2-{5-[6-butyl-5-(2,6-dimethoxyphenyl)-2,4-dihydroxy-pyridin-3-yl]-1,3,4-oxadiazol-2-yl}-N-[(4-sulfamoylphenyl)methyl]acetamide] has an EC50 of 10 to 100 nM.

Same assay, conditions: HEK293 cells stably expressing human APJ receptor; inhibition of forskolin-mediated cAMP production; read-out: hAPJ cAMP EC50 Potency range
Molecule `CCCCc1nc(O)c(-c2nnc(Cc3cccc(F)c3)o2)c(O)c1-c1c(OC)cccc1OC` [Example 99, 6-butyl-5-(2,6-dimethoxyphenyl)-3-{5-[(3-fluorophenyl)methyl]-1,3,4-oxadiazol-2-yl}pyridine-2,4-diol] has a pEC50 of 8.00 to 11.00.
With `CCCCc1nc(O)c(-c2nnc(CN3C(=O)CNC3=O)o2)c(O)c1-c1c(OC)cccc1OC` [Example 113, 3-({5-[6-butyl-5-(2,6-dimethoxyphenyl)-2,4-dihydroxypyridin-3-yl]-1,3,4-oxadiazol-2-yl}methyl) imidazolidine-2,4-dione] the pEC50 was 7.00 to 8.00.
With `CCCCc1nc(O)c(-c2nnc(Cc3nonc3C)o2)c(O)c1-c1c(OC)cccc1OC` [Example 41, 6-butyl-5-(2,6-dimethoxyphenyl)-3-{5-[(4-methyl-1,2,5-oxadiazol-3-yl)methyl]-1,3,4-oxadiazol-2-yl}pyridine-2,4-diol] the pEC50 was 8.00 to 11.00.
Molecule `CCCCc1nc(O)c(-c2nnc(COc3ccc(Cl)cc3)o2)c(O)c1-c1c(OC)cccc1OC` [Example 53, 6-butyl-3-[5-(4-chlorophenoxy-methyl)-1,3,4-oxadiazol-2-yl]-5-(2,6-dimethoxyphenyl) pyridine-2,4-diol] has a pEC50 of 7.00 to 8.00.
Work on `CCCCc1nc(O)c(-c2nnc(C(C)(C)c3ccccc3)o2)c(O)c1-c1c(OC)cccc1OC` [Example 15, 6-butyl-5-(2,6-dimethoxyphenyl)-3-[5-(2-phenylpropan-2-yl)-1,3,4-oxadiazol-2-yl]pyridine-2,4-diol] yielded a pEC50 of 8.00 to 11.00.
For `CCCCc1nc(O)c(-c2nnc(Cc3noc4ccccc34)o2)c(O)c1-c1c(OC)cccc1OC` [Example 20, 3-[5-(1,2-benzoxazol-3-ylmethyl)-1,3,4-oxadiazol-2-yl]-6-butyl-5-(2,6-dimethoxyphenyl) pyridine-2,4-diol], the pEC50 was 8.00 to 11.00.
`COc1cccc(OC)c1-c1c(C2CC2)nc(O)c(-c2nnc(Cc3noc4ccccc34)o2)c1O` [Example 92, 3-[5-(1,2-benzoxazol-3-ylmethyl)-1,3,4-oxadiazol-2-yl]-6-cyclopropyl-5-(2,6-dimethoxyphenyl) pyridine-2,4-diol] was tested, and the pEC50 was 7.00 to 8.00.
With `CCCCNC(=O)Cc1nnc(-c2c(O)nc(CCCC)c(-c3c(OC)cccc3OC)c2O)o1` [Example 197, N-butyl-2-{5-[6-butyl-5-(2,6-dimethoxyphenyl)-2,4-dihydroxypyridin-3-yl]-1,3,4-oxadiazol-2-yl}acetamide] the pEC50 was 8.00 to 11.00.
For `CCCCc1nc(O)c(-c2nnc(CC(=O)NCC(F)(F)F)o2)c(O)c1-c1c(OC)cccc1OC` [Example 192, 2-{5-[6-butyl-5-(2,6-dimethoxyphenyl)-2,4-dihydroxypyridin-3-yl]-1,3,4-oxadiazol-2-yl}-N-(2,2,2-trifluoroethyl) acetamide], the pEC50 was 8.00 to 11.00.
For `CCCCc1nc(O)c(-c2nnc(Cc3ccc(Cl)cc3F)o2)c(O)c1-c1c(OC)cccc1OC` [Example 103, 6-butyl-3-{5-[(4-chloro-2-fluorophenyl)methyl]-1,3,4-oxadiazol-2-yl}-5-(2,6-dimethoxyphenyl) pyridine-2,4-diol], the pEC50 was 8.00 to 11.00.
`CCCCc1nc(O)c(-c2nnc(Cc3csc(C)n3)o2)c(O)c1-c1c(OC)cccc1OC` [Example 79, 6-butyl-5-(2,6-dimethoxyphenyl)-3-{5-[(2-methyl-1,3-thiazol-4-yl)methyl]-1,3,4-oxadiazol-2-yl}pyridine-2,4-diol] was tested, and the pEC50 was 8.00 to 11.00.
For `CCCCc1nc(O)c(-c2nnc(Cc3ccc(F)c(F)c3)o2)c(O)c1C1=CCCCC1` [Example 144, 6-butyl-5-(cyclohex-1-en-1-yl)-3-{5-[(3,4-difluorophenyl)methyl]-1,3,4-oxadiazol-2-yl}pyridine-2,4-diol], the pEC50 was 7.00 to 8.00.
`COc1cccc(OC)c1-c1c(C2CC2)nc(O)c(-c2nnc(Cc3nc(-c4ccccn4)no3)o2)c1O` [Example 95, 6-cyclopropyl-5-(2,6-dimethoxyphenyl)-3-(5-{[3-(pyridin-2-yl)-1,2,4-oxadiazol-5-yl]methyl}-1,3,4-oxadiazol-2-yl)pyridine-2,4-diol] gave a pEC50 of 8.00 to 11.00.
In the case of `CCCCc1nc(O)c(-c2nnc(Cc3nnn(C)n3)o2)c(O)c1-c1c(OC)cccc1OC` [Example 63, 6-butyl-5-(2,6-dimethoxyphenyl)-3-{5-[(2-methyl-2H-1,2,3,4-tetrazol-5-yl)methyl]-1,3,4-oxadiazol-2-yl}pyridine-2,4-diol], the pEC50 was 8.00 to 11.00.
In the case of `CCCCc1nc(O)c(-c2nnc(CC(=O)Nc3ccc(OC)cc3)o2)c(O)c1-c1c(OC)cccc1OC` [Example 183, 2-{5-[6-butyl-5-(2,6-dimethoxyphenyl)-2,4-dihydroxypyridin-3-yl]-1,3,4-oxadiazol-2-yl}-N-(4-methoxyphenyl) acetamide], the pEC50 was 7.00 to 8.00.
With `CCCCc1nc(O)c(-c2nnc(CNC(=O)Cc3ccccc3)o2)c(O)c1-c1c(OC)cccc1OC` [Example 166, N-({5-[6-butyl-5-(2,6-dimethoxyphenyl)-2,4-dihydroxypyridin-3-yl]-1,3,4-oxadiazol-2-yl}methyl)-2-phenylacetamide] the pEC50 was 8.00 to 11.00.
`CCOCc1nc(O)c(-c2nnc(Cc3ccc(F)cc3)o2)c(O)c1-c1c(OC)cccc1OC` [Example 135, 5-(2,6-dimethoxyphenyl)-6-(ethoxymethyl)-3-{5-[(4-fluorophenyl)methyl]-1,3,4-oxadiazol-2-yl}pyridine-2,4-diol] was tested, and the pEC50 was 8.00 to 11.00.
Work on `CCCCc1nc(O)c(-c2nnc(CNC(=O)c3cccc(Cl)c3)o2)c(O)c1-c1c(OC)cccc1OC` [Example 162, N-({5-[6-butyl-5-(2,6-dimethoxyphenyl)-2,4-dihydroxypyridin-3-yl]-1,3,4-oxadiazol-2-yl}methyl)-3-chlorobenzamide] yielded a pEC50 of 8.00 to 11.00.
With `CCCCc1nc(O)c(-c2nnc(CC(=O)NCc3ccccn3)o2)c(O)c1-c1c(OC)cccc1OC` [Example 178, 2-{5-[6-butyl-5-(2,6-dimethoxyphenyl)-2,4-dihydroxypyridin-3-yl]-1,3,4-oxadiazol-2-yl}-N-(pyridin-2-ylmethyl)acetamide] the pEC50 was 7.00 to 8.00.
`CCCCc1nc(O)c(-c2nnc(C(C)c3ccc(Cl)cc3)o2)c(O)c1-c1c(OC)cccc1OC` (centres unmarked) [Example 40, 6-butyl-3-{5-[1-(4-chlorophenyl)ethyl]-1,3,4-oxadiazol-2-yl}-5-(2,6-dimethoxyphenyl) pyridine-2,4-diol] gave a pEC50 of 8.00 to 11.00.
Work on `CCCCc1[nH]c(=O)c(-c2nnc(Cc3csc(C)n3)o2)c(O)c1-c1cccc(C(=O)NC(C)C)c1` [Example 149, 3-(2-butyl-4-hydroxy-5-{5-[(2-methyl-1,3-thiazol-4-yl)methyl]-1,3,4-oxadiazol-2-yl}-6-oxo-1,6-dihydropyridin-3-yl)-N-(propan-2-yl)benzamide] yielded a pEC50 of 8.00 to 11.00.
With `CCCCc1nc(O)c(-c2nnc(CNC(=O)c3cccnc3)o2)c(O)c1-c1c(OC)cccc1OC` [Example 160, N-({5-[6-butyl-5-(2,6-dimethoxyphenyl)-2,4-dihydroxypyridin-3-yl]-1,3,4-oxadiazol-2-yl}methyl)pyridine-3-carboxamide] the pEC50 was 8.00 to 11.00.
`CCCCc1nc(O)c(-c2nnc(CC(=O)N3CCCCC3)o2)c(O)c1-c1c(OC)cccc1OC` [Example 195, 2-{5-[6-butyl-5-(2,6-dimethoxyphenyl)-2,4-dihydroxypyridin-3-yl]-1,3,4-oxadiazol-2-yl}-1-(piperidin-1-yl)ethan-1-one] showed a pEC50 of 8.00 to 11.00.

Same assay, conditions: hAPJ cAMP EC50 (nM) Potency range, HEK293 cells stably expressing human APJ receptor; inhibition of forskolin-mediated cAMP production
`CCCCc1nc(O)c(-c2nnc(Cc3ncc(Cl)cc3F)o2)c(O)c1-c1c(OC)cccc1OC` [Example 236, 6-butyl-3-{5-[(5-chloro-3-fluoropyridin-2-yl)methyl]-1,3,4-oxadiazol-2-yl}-5-(2,6-dimethoxyphenyl) pyridine-2,4-diol] was tested, and the EC50 was 10 to 100 nM.
